Test results as given in ChEMBL document CHEMBL1126173, “Molecular recognition of amiloride analogs: a molecular electrostatic potential analysis. 1. Pyrazine ring modifications” (J Med Chem, 1992).

Test: Inhibitory activity against epithelial sodium channels- NA+/H+ antiporter, Na+/ca+2 exchanger, Na+/ca+2 channels, K+ channel, nicotinic acetylcholine receptor and Na+/K+ ATPase
Details: rana ridibundus

Kon	Structure (SMILES)
1.143e+07 M⁻¹ s⁻¹	Nc1nc(N)c(C(=O)NC(N)N)nc1I
1.354e+07 M⁻¹ s⁻¹	Nc1nc(N)c(C(=O)NC(N)N)nc1F
1.447e+07 M⁻¹ s⁻¹	Nc1cnc(C(=O)NC(N)N)c(N)n1
5.16e+06 M⁻¹ s⁻¹	Nc1nc(Cl)c(Cl)nc1C(=O)NC(N)N
3.32e+06 M⁻¹ s⁻¹	Nc1ncc(Cl)nc1C(=O)NC(N)N
1.419e+07 M⁻¹ s⁻¹	Nc1nc(N)c(C(=O)NC(N)N)nc1Br
1.317e+07 M⁻¹ s⁻¹	Nc1nc(N)c(C(=O)NC(N)N)nc1Cl

Test: Blocking time for inhibition of epithelial sodium channels- NA+/H+ antiporter, Na+/ca+2 exchanger, Na+/ca+2 channels, K+ channel, nicotinic acetylcholine receptor and Na+/K+ ATPase
Details: rana ridibundus

Block time	Structure (SMILES)
57 ms	Nc1nc(N)c(C(=O)NC(N)N)nc1I
31 ms	Nc1nc(N)c(C(=O)NC(N)N)nc1F
6 ms	Nc1cnc(C(=O)NC(N)N)c(N)n1
7 ms	Nc1nc(Cl)c(Cl)nc1C(=O)NC(N)N
92 ms	Nc1ncc(Cl)nc1C(=O)NC(N)N
179 ms	Nc1nc(N)c(C(=O)NC(N)N)nc1Br
255 ms	Nc1nc(N)c(C(=O)NC(N)N)nc1Cl

Test: Inhibitory activity against epithelial sodium channels- NA+/H+ antiporter, Na+/ca+2 exchanger, Na+/ca+2 channels, K+ channel, nicotinic acetylcholine receptor and Na+/K+ ATPase(microscopic dissociation constant)
Details: rana ridibundus

Koff	Structure (SMILES)
5.58 s⁻¹	Nc1nc(N)c(C(=O)NC(N)N)nc1Br

Test: Inhibitory activity against epithelial sodium channels- NA+/H+ antiporter, Na+/ca+2 exchanger, Na+/ca+2 channels, K+ channel, nicotinic acetylcholine receptor and Na+/K+ ATPase (microscopic dissociation constant)
Type: ADME
Details: rana ridibundus

Koff	Structure (SMILES)
17.41 s⁻¹	Nc1nc(N)c(C(=O)NC(N)N)nc1I
32.2 s⁻¹	Nc1nc(N)c(C(=O)NC(N)N)nc1F
176.25 s⁻¹	Nc1cnc(C(=O)NC(N)N)c(N)n1
151.1 s⁻¹	Nc1nc(Cl)c(Cl)nc1C(=O)NC(N)N
10.89 s⁻¹	Nc1ncc(Cl)nc1C(=O)NC(N)N
3.93 s⁻¹	Nc1nc(N)c(C(=O)NC(N)N)nc1Cl
